Key:
hPBMC = tested on: hPBMC; design: method as in earlier work; conditions: cited from earlier work
CLP-induced sepsis mice = experiment: CLP-induced lung and organ injury, histopathology scoring; format: in vivo, C57BL6/J mice
Description: For CLP-induced lung injury, CLP was performed as previously described by us. As antibiotics are the standard of care in sepsis patients, one dose of imipenem was given SC at 5 mg/kg 30 min after the procedure, followed by two doses of AVR-48 (10 mg/kg, IV) at 16 h and 24 h following the surgery, and sacrificed after 72 h. The sham mice (controls) had the abdominal cavity opened, the cecum was not perforated, and the peritoneum was stitched back.
H&E staining was performed on 5 µm paraffin lung tissue sections following standardized methods. Four to five random images per lung and 4–5 lungs per experimental group were characterized for lung injury score analysis.
Two different scoring systems were used for lung injury scoring, as the experiments were done at different times. The LPS-/hyperoxia-induced ALI scoring was done by DS, while the CLP-induced lung and other organs’ scoring was done by two additional independent investigators (PD and BA). For the hyperoxia- and LPS-induced lung injury, scoring was done on histological sections based on neutrophil infiltration and epithelial injury using the methods as described before with modifications. Four to five random images per lung and 4–5 lungs per experimental group were characterized for lung injury score analysis. We used a 0–4 scoring system in which 0 = no infiltration/injury, 1 = minimal infiltration/injury to 25% of the field, 2 = mild infiltration/injury […] of the field, 3 = moderate infiltration/injury to 75% of the field, and 4 = severe infiltration/diffuse injury. For the CLP-induced ALI, scoring was done following the methodology as reported earlier by a qualified pathologist (BA) in masked manner. Lungs were harvested from all the mice after the endpoint, and lung injury was scored based on the criteria of alveolar damage and vascular congestion and hemorrhage. As CLP-induced sepsis also results in damage to the rest of the viscera, which can contribute to ALI/ARDS, other organs were also scored as above, to determine the recovery potential of AVR-48 as a candidate drug. The following (cells) were taken into account while scoring the injury level followed by recovery after treatment in other vital organs: heart (myocardium), kidney (glomeruli, tubules), gut (mucosal cells, enterocytes), spleen (lymphoid follicles), liver (hepatocytes), brain (neuronal damage), testis (Seminiferous tubules), and lymph nodes. The final scores were calculated on the basis of total percentage of the damaged/recovered area and by the number of areas/High power field (HPF) as reported above.

[1] = AVR-48 10 mg/kg IV x2 after CLP
[2] = after CLP, Mean ± SEM, CLP alone 4.8± 0.2

For `CC(=O)N[C@H]1[C@H](Oc2ccc([N+](=O)[O-])cc2)O[C@H](CO)[C@@H](O)[C@@H]1O` [AVR-48, N-((2S,3R,4R,5S,6R)-4,5-dihydroxy-6-(hydroxymethyl)-2-(4-nitrophenoxy)tetrahydro-2H-pyran-3-yl) acetamide], the TNF-α (hPBMC; in vitro hPBMC model) is listed as “decreases TNF-α”, the IL-10 expression (hPBMC; with or without LPS) is listed as “increased IL-10 expression” and the “lung injury score vs CLP group” value (CLP-induced sepsis mice; AVR-48 10 mg/kg IV at 16 h and 24 h, sacrificed after 72 h, p < 0.001) is listed as “significant recovery”. The “appearance of the lung (histopathology)” value (CLP-induced sepsis mice; [1]) was “decreased inflammation and hemorrhage”, the “histopathological changes in other vital organs vs CLP-only group” value (CLP-induced sepsis mice; [1]) was “dramatic improvement” and the “Injury score: Brain, Neuronal Damage” value (CLP-induced sepsis mice; [2]) was 3.6± 0.245. For the same compound, the “Injury score: Brain, Vascular Congestion & Hemorrhage” value (CLP-induced sepsis mice; [2]) was 3.4± 0.245, the “Injury score: Gut, MVD” value (CLP-induced sepsis mice; [2]) was 3.6± 0.245 and the “Injury score: Gut, Vascular Congestion & Hemorrhage” value (CLP-induced sepsis mice; [2]) was 3.6± 0.245. For the same compound, the “Injury score: Heart, Myocardial Damage” value (CLP-induced sepsis mice; [2]) was 3.4± 0.245, the “Injury score: Heart, Vascular Congestion & Hemorrhage” value (CLP-induced sepsis mice; [2]) was 3.4± 0.4 and the “Injury score: Kidney, Glomerular Damage” value (CLP-induced sepsis mice; [2]) was 3.6± 0.245. The “Injury score: Kidney, Glomerular Injury” value (CLP-induced sepsis mice; [2]) was 3.6± 0.245, the “Injury score: Kidney, Vascular Congestion & Hemorrhage” value (CLP-induced sepsis mice; [2]) was 3.6± 0.245 and the “Injury score: Liver, Hepatocyte Injury” value (CLP-induced sepsis mice; [2]) was 3.6± 0.245. The “Injury score: Liver, Vascular Congestion & Hemorrhage” value (CLP-induced sepsis mice; [2]) was 3.6± 0.245, the “Injury score: Lung, Alveolar Damage” value (CLP-induced sepsis mice; [2]) was 3.6± 0.245 and the “Injury score: Lung, Vascular Congestion and Hemorrhage” value (CLP-induced sepsis mice; [2]) was 3.6± 0.245. For the same compound, the “Injury score: Lymph Node, Follicular Damage” value (CLP-induced sepsis mice; [2]) was 3.4± 0.245, the “Injury score: Spleen, Vascular Congestion & Hemorrhage” value (CLP-induced sepsis mice; [2]) was 3.6± 0.245 and the “Injury score: Testis, Tubular Damage” value (CLP-induced sepsis mice; [2]) was 3.6± 0.245. The “Injury score: Testis, Vascular Congestion & Hemorrhage” value (CLP-induced sepsis mice; [2]) was 3.6± 0.245.
